According to publication PMC12652730, “The Chemoreceptive Molecular Mechanism Underlying CSP-Mediated Recognition of Seed Elaiosome from Stemona tuberosa by Hornets” (Genes, 2025):
pIC50, pKi: −log10 of the molar value. Read-outs that look alike come from different tables or passages of the source.

Legend:
VvelCSP1 = VvelCSP1 (Vespa velutina auraria, UniProt A0A384ZVP9); experiment: Fluorescence competitive binding assay (1-NPN probe) with VvelCSP1; details: for pKi: VvelCSP1
Protocol: (§1) Fluorescence competitive binding assays were employed to characterize the interactions between VvelCSPs and 13 volatiles shared between the elaiosomes of S. tuberosa and the cuticular hydrocarbons of honeybees. These tests were performed in 1 cm path length quartz cuvettes with an excitation wavelength of 337 nm and emission wavelength scanning from 400–450 nm. The volatiles and the fluorescent probe 1-NPN (1-N-phenylnaphthylamine), listed in Supplementary Table S2, were dissolved in methanol to prepare 100 mM stock solutions, which were then diluted to 1 mM working solutions [25]. To remove any potential endogenous ligands, the purified proteins were delipidated by three washes with an equal volume of dichloromethane (1:1 v/v). Each wash involved a 10-min incubation, and the process was followed by evaporation of the residual solvent under a gentle stream of nitrogen. Purified CSPs were resuspended in 20 mM Tris-HCl buffer (pH 7.5) to a final concentration of 2 μM. Binding parameters for CSP-NPN were determined by titration: 2 mL of CSP solution (2 μM) was titrated with 1-NPN (final concentrations: 2−24 μM). Maximum fluorescence intensity was recorded, and the dissociation constant was calculated. […] After incubation in the dark for 2 min, fluorescence quenching was measured. Half-maximal inhibitory concentration (IC50) values for volatiles were calculated from the competition curves, and their binding constants (Ki) were subsequently derived. The presented data, including IC50 and Ki values, originate from a single experiment under uniform conditions to ensure comparability (Supplementary Table S3).

VvelCSP4 = experiment: Fluorescence competitive binding assay (1-NPN probe) with VvelCSP4; design: species or system Vespa velutina auraria; details: for pIC50: VvelCSP4 2 μM, 1-NPN 1 μM, Tris-HCl pH 7.5, single experiment, read-out: IC50 (ligand concentration displacing 50% of the fluorescence intensity of the CSPs/NPN complex); for pKi / IC50 / Ki: VvelCSP4; for IC50: read-out: IC50 (μM), no binding symbol; for Ki: read-out: Ki (μM), no binding symbol
Protocol: as §1

[1] = derived from IC50, read-out: Ki (dissociation constant)
[2] = read-out: Binding affinity class (by Ki)

Chain of VvelCSP1 (A0A384ZVP9 entry or part of it): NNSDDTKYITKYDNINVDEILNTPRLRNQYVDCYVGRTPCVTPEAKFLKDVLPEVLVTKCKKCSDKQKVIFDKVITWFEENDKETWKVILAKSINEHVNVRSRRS

| SMILES | Raw fluorescence intensity (VvelCSP1; VvelCSP1, chemical 0.5 μM) | Raw fluorescence intensity (VvelCSP1; VvelCSP1, chemical 1 μM) | Raw fluorescence intensity (VvelCSP1; VvelCSP1, chemical 2 μM) | Raw fluorescence intensity (VvelCSP1; VvelCSP1, chemical 4 μM) | Raw fluorescence intensity (VvelCSP1; VvelCSP1, chemical 6 μM) | Raw fluorescence intensity (VvelCSP1; VvelCSP1, chemical 8 μM) | Raw fluorescence intensity (VvelCSP1; VvelCSP1, chemical 12 μM) | Raw fluorescence intensity (VvelCSP1; VvelCSP1, chemical 16 μM) | pIC50 (VvelCSP4) | Raw fluorescence intensity (VvelCSP4; VvelCSP4, chemical 0.5 μM) | Raw fluorescence intensity (VvelCSP4; VvelCSP4, chemical 1 μM) | Raw fluorescence intensity (VvelCSP4; VvelCSP4, chemical 2 μM) | Raw fluorescence intensity (VvelCSP4; VvelCSP4, chemical 4 μM) | Raw fluorescence intensity (VvelCSP4; VvelCSP4, chemical 6 μM) | Raw fluorescence intensity (VvelCSP4; VvelCSP4, chemical 8 μM) | Raw fluorescence intensity (VvelCSP4; VvelCSP4, chemical 12 μM) | Raw fluorescence intensity (VvelCSP4; VvelCSP4, chemical 16 μM) | pKi (VvelCSP4; [1]) | IC50 (VvelCSP4) | Ki (VvelCSP4) | other results |
| --- | --- | --- | --- | --- | --- | --- | --- | --- | --- | --- | --- | --- | --- | --- | --- | --- | --- | --- | --- | --- | --- |
| CCCCCCCCCCCCCCCCCCCCCC [Docosane] | 246.77 | 231.89 | 197.76 | 171.56 | 161.14 | 158.53 | 154.82 | 153.17 | 5.43 | 205.93 | 179.89 | 159.86 | 127.80 | 108.85 | 102.51 | 95.75 | 91.32 | 5.56 | – | – | – |
| CCCCCCCCCCCCCCCCCCCC [Eicosane] | 246.85 | 234.09 | 206.27 | 199.36 | 183.72 | 175.07 | 172.10 | 170.22 | – | 192.14 | 182.38 | 164.23 | 154.96 | 139.00 | 133.35 | 128.24 | 125.62 | – | > 24 µM | > 18 µM | – |
| CCCCCCCCCCCCCCCCCCCCC [Heneicosane] | 190.87 | 168.28 | 152.31 | 138.38 | 134.83 | 130.66 | 127.58 | 125.86 | 4.70 | 252.45 | 226.44 | 209.89 | 178.34 | 161.57 | 149.85 | 143.60 | 140.19 | 4.83 | – | – | – |
| CCCCCCCCCCCCCCCCCCCCCCCCCCC [Heptacosane] | 222.51 | 205.55 | 159.00 | 136.99 | 130.11 | 123.81 | 117.37 | 115.92 | 5.21 | 218.17 | 194.71 | 172.10 | 154.91 | 140.68 | 130.60 | 128.65 | 125.52 | 5.34 | – | – | – |
| CCCCCCCCCCCCCCCCCCCCCCCCCC [Hexacosane] | 189.29 | 171.76 | 135.79 | 114.55 | 103.35 | 99.94 | 93.92 | 89.96 | – | 213.35 | 194.71 | 177.42 | 169.19 | 147.61 | 141.30 | 136.25 | 133.13 | – | > 24 µM | > 18 µM | – |
| CCCCCCCCCCCCCCCCCCC [Nanadecane] | 223.11 | 209.38 | 178.27 | 171.35 | 158.50 | 148.00 | 140.37 | 133.91 | 4.98 | 238.31 | 207.32 | 185.38 | 167.28 | 153.91 | 144.81 | 135.70 | 129.34 | 5.10 | – | – | pIC50 (VvelCSP1; VvelCSP1 2 μM, 1-NPN 1 μM, Tris-HCl pH 7.5, single experiment, read-out: IC50 (ligand concentration displacing 50% of the fluorescence intensity of the CSPs/NPN complex)): 4.74; pKi (VvelCSP1; [1]): 4.84; pKi (VvelCSP1; [2]): < 5.00; pKi (VvelCSP4; [2]): 5.00 to 5.30 |
| CCCCCCCCCCCCCCCCCCCCCCCCCCCCC [Nonacosane] | 215.85 | 197.03 | 181.17 | 168.33 | 152.52 | 138.03 | 127.11 | 120.08 | 4.69 | 212.97 | 196.97 | 179.08 | 164.16 | 151.46 | 136.04 | 129.53 | 125.16 | 4.82 | – | – | – |

Further lines, with some results ahead:

| Raw fluorescence intensity (VvelCSP1; VvelCSP1, chemical 0.5 μM) | Raw fluorescence intensity (VvelCSP1; VvelCSP1, chemical 1 μM) | Raw fluorescence intensity (VvelCSP1; VvelCSP1, chemical 2 μM) | Raw fluorescence intensity (VvelCSP1; VvelCSP1, chemical 4 μM) | Raw fluorescence intensity (VvelCSP1; VvelCSP1, chemical 6 μM) | Raw fluorescence intensity (VvelCSP1; VvelCSP1, chemical 8 μM) | Raw fluorescence intensity (VvelCSP1; VvelCSP1, chemical 12 μM) | Raw fluorescence intensity (VvelCSP1; VvelCSP1, chemical 16 μM) | pIC50 (VvelCSP4) | Raw fluorescence intensity (VvelCSP4; VvelCSP4, chemical 0.5 μM) | Raw fluorescence intensity (VvelCSP4; VvelCSP4, chemical 1 μM) | Raw fluorescence intensity (VvelCSP4; VvelCSP4, chemical 2 μM) | Raw fluorescence intensity (VvelCSP4; VvelCSP4, chemical 4 μM) | Raw fluorescence intensity (VvelCSP4; VvelCSP4, chemical 6 μM) | Raw fluorescence intensity (VvelCSP4; VvelCSP4, chemical 8 μM) | Raw fluorescence intensity (VvelCSP4; VvelCSP4, chemical 12 μM) | Raw fluorescence intensity (VvelCSP4; VvelCSP4, chemical 16 μM) | pKi (VvelCSP4; [1]) | IC50 (VvelCSP4) | Ki (VvelCSP4) | SMILES | other results |
| --- | --- | --- | --- | --- | --- | --- | --- | --- | --- | --- | --- | --- | --- | --- | --- | --- | --- | --- | --- | --- | --- |
| 200.77 | 192.40 | 162.06 | 146.64 | 135.22 | 131.33 | 127.20 | 124.62 | – | 227.35 | 213.99 | 194.19 | 182.58 | 174.55 | 162.14 | 156.02 | 154.11 | – | > 24 µM | > 18 µM | CCCCCCCCCCCCCCCCCCCCCCCCCCCC [Octacosane] | – |
| 242.52 | 219.99 | 165.83 | 143.30 | 135.17 | 129.88 | 124.70 | 122.60 | 5.33 | 211.45 | 182.28 | 160.44 | 139.39 | 119.91 | 111.74 | 105.45 | 103.82 | 5.46 | – | – | CCCCCCCCCCCCCCCCCCCCCCCCC [Pentacosane] | – |
| 225.09 | 200.88 | 176.79 | 157.66 | 144.05 | 131.64 | 122.98 | 117.42 | 4.72 | 216.50 | 198.86 | 178.28 | 160.59 | 153.54 | 132.96 | 126.27 | 122.27 | 4.85 | – | – | CCCCCCCCCCCCCCCCCCCCCCCC [Tetracosane] | – |
| 211.63 | 196.09 | 180.51 | 166.41 | 152.93 | 143.85 | 139.39 | 137.14 | – | 216.07 | 200.62 | 183.85 | 171.56 | 162.42 | 148.29 | 139.28 | 135.24 | – | > 24 µM | > 18 µM | CCCCCCCCCCCCCCCCCCCCCCCCCCCCCC [Triacontane] | – |
